In one series the test system is Erythrocyte. As to the kind of experiment: Hemolytic activity in human RBC incubated measured upto 128 ug/ml. Type of series: toxicity, cell-based. The following applies: dose < 128 µg/ml.
For series [1], the system named is Cell membrane. Briefly: Induction of cytoplasmic membrane depolarization in Staphylococcus aureus ATCC 29213 assessed as increase in fluorescence intensity at 2 times of MIC measured upto 40 mins by DiSC35 dye based fluorescence method. Type of series: cell membranes.
For series [2], the system named is Staphylococcus aureus. As to the kind of experiment: Antibacterial activity against Staphylococcus aureus ATCC 25923 assessed growth inhibition by micro broth dilution method. Type of series: functional. (In broth dilution the organism is exposed to a series of concentrations in liquid medium.)
Series [3] has as its system Klebsiella pneumoniae. As to the kind of experiment: Antibacterial activity against Klebsiella pneumonia assessed as decrease in relative metabolic activity at 4 times of MIC by Alamar Blue assays. It counts as functional, organism-based. Background: The colour change of resazurin is a common sign of viable cells or microbes.
For series [4], the system named is Pseudomonas aeruginosa. Briefly: Antibacterial activity against Pseudomonas aeruginosa ATCC 27853 assessed growth inhibition by micro broth dilution method. Type of series: functional.
Series [5] relates to Cell membrane. Briefly: Induction of disruption of membrane integrity in Klebsiella pneumonia assessed as leakage of intracellular proteins by Acid Blue 90 based assay. It counts as cell membranes. The following applies: Klebsiella pneumoniae.
Series [6] has as its system Staphylococcus aureus. Briefly: Antibacterial activity against methicillin-resistant Staphylococcus aureus assessed growth inhibition by micro broth dilution method. It counts as functional.
The test system of series [7] is Staphylococcus aureus. Briefly: Antibacterial activity against Staphylococcus aureus ATCC 29213 assessed as decrease in relative metabolic activity at 4 times of MIC by Alamar Blue assays. It counts as functional, organism-based.
Series [8] relates to Staphylococcus aureus. Briefly: Antibacterial activity against Staphylococcus aureus ATCC 29213 assessed growth inhibition by micro broth dilution method. Type of series: functional.
For series [9], the system named is Cell membrane. As to the kind of experiment: Induction of outer membrane permeability in Klebsiella pneumonia assessed as increase in fluorescence intensity at 2 times of MIC by N-phenyl naphthylamine (NPN) dye based assay. The following applies: Klebsiella pneumoniae. Type of series: cell membranes.
Series [10] has as its system Klebsiella pneumoniae. Briefly: Induction of ROS generation in Klebsiella pneumonia assessed as loss of GSH activity by Ellmans method. It counts as functional, organism-based. For orientation: In Ellman's method for cholinesterases, released thiocholine reacts with DTNB.
The subject of another series is Acinetobacter baumannii. As to the kind of experiment: Antibacterial activity against Acinetobacter baumannii assessed growth inhibition by micro broth dilution method. Type of series: functional.
Series [11] has as its system Staphylococcus aureus. Briefly: Antibacterial activity against Staphylococcus aureus assessed growth inhibition by micro broth dilution method. Type of series: functional.
Series [12] deals with Cell membrane. Briefly: Induction of disruption of membrane integrity in Staphylococcus aureus ATCC 29213 assessed as leakage of intracellular proteins by Acid Blue 90 based assay. Type of series: cell membranes.
A further series concerns Enterococcus faecalis. Briefly: Antibacterial activity against Enterococcus faecalis assessed growth inhibition by micro broth dilution method. Type of series: functional.
Series [13] concerns Escherichia coli. Briefly: Antibacterial activity against Escherichia coli ATCC 25922 assessed growth inhibition by micro broth dilution method. It counts as functional.
The test system of series [14] is Escherichia coli. As to the kind of experiment: Antibacterial activity against Escherichia coli assessed growth inhibition by micro broth dilution method. It counts as functional.
Series [15] has as its system Klebsiella pneumoniae. As to the kind of experiment: Bactericidal activity against Klebsiella pneumonia assessed as time dependent killing at 4 times of MIC measured at 8 hrs. It counts as functional, organism-based.
Series [16] deals with Staphylococcus aureus. As to the kind of experiment: Induction of ROS generation in Staphylococcus aureus ATCC 29213 assessed as loss of GSH activity by Ellmans method. Type of series: functional, organism-based.
Series [17] concerns Klebsiella pneumoniae. Briefly: Induction of ROS generation in Klebsiella pneumonia assessed as increase in fluorescence intensity by DCFH-DA based microscopic analysis. Type of series: functional, organism-based.
In series [18] the test system is Cell membrane. As to the kind of experiment: Induction of cytoplasmic membrane depolarization in Klebsiella pneumonia assessed as increase in fluorescence intensity at 2 times of MIC measured upto 40 mins by DiSC35 dye based fluorescence method. Type of series: cell membranes. The following applies: Klebsiella pneumoniae, DISRUPTING AGENT.
Series [19] deals with Staphylococcus aureus. Briefly: Bactericidal activity against Staphylococcus aureus ATCC 29213 assessed as time dependent killing at 4 times of MIC measured at 8 hrs. It counts as functional, organism-based.
Series [20] relates to Pseudomonas aeruginosa. Briefly: Antibacterial activity against Pseudomonas aeruginosa assessed growth inhibition by micro broth dilution method. Type of series: functional.
The subject of series [21] is Staphylococcus aureus. As to the kind of experiment: Induction of ROS generation in Staphylococcus aureus ATCC 29213 assessed as increase in fluorescence intensity by DCFH-DA based microscopic analysis. It counts as functional, organism-based.
Series [22] has as its system Klebsiella pneumoniae. As to the kind of experiment: Antibacterial activity against Klebsiella pneumonia assessed growth inhibition by micro broth dilution method. Type of series: functional.

Each structure is given as a SMILES string. In brackets after ≈: the same amount, converted by molar mass. Activity calls are given as the source filed them. No cut-off for these calls is given here.

For `CCOC(=O)C(C#N)c1cc2c(cc1F)c(=O)c(C(=O)O)cn2C1CC1` (stereo unspecified), the Activity entry is “Non-Toxic” with Erythrocyte; “Dose-Dependent Effect” in the series with Cell membrane [5]; “Dose-Dependent Effect” with Cell membrane [9]; “Dose-Dependent Effect” in the series on Klebsiella pneumoniae [10]; “Dose-Dependent Effect” in the series on Cell membrane [12]; “Dose-Dependent Effect” in the series with Staphylococcus aureus [16]. Besides, the Activity result with Klebsiella pneumoniae [17] and with Staphylococcus aureus [21] was “Dose-Dependent Effect” each time. Moreover, the outcome in the series on Cell membrane [1], in the series with Klebsiella pneumoniae [3], with Staphylococcus aureus [7], with Klebsiella pneumoniae [15], in the series with Cell membrane [18] and with Staphylococcus aureus [19] was Active. Also, the MIC – broadly, the lowest concentration that inhibits growth of the organism – in the series on Staphylococcus aureus [2] worked out at 8 µg/mL (≈ 22.3 µM); with Pseudomonas aeruginosa [4] it was 4 µg/mL (≈ 11.2 µM); with Staphylococcus aureus [6], 2 µg/mL (≈ 5.58 µM); against Staphylococcus aureus [8] it was 0.5 µg/mL (≈ 1.4 µM); in the series with Acinetobacter baumannii, 1 µg/mL (≈ 2.79 µM); against Staphylococcus aureus [11], 0.5 µg/mL (≈ 1.4 µM). The MIC amounted to 64 µg/mL (≈ 179 µM) with Enterococcus faecalis; 0.5 µg/mL (≈ 1.4 µM) in the series with Escherichia coli [13]; 32 µg/mL (≈ 89.3 µM) with Escherichia coli [14]; 16 µg/mL (≈ 44.7 µM) in the series on Pseudomonas aeruginosa [20]; 0.25 µg/mL (≈ 0.698 µM) in the series with Klebsiella pneumoniae [22].
As to `CCCCn1cc(C(=O)OCC)c(=O)c2cc(F)c(F)cc21`, the MIC in the series with Staphylococcus aureus [2] worked out at 128 µg/mL (≈ 414 µM); against Pseudomonas aeruginosa [4] it was 256 µg/mL (≈ 828 µM); with Staphylococcus aureus [6], 256 µg/mL (≈ 828 µM); against Staphylococcus aureus [8], 128 µg/mL (≈ 414 µM); against Acinetobacter baumannii, 128 µg/mL (≈ 414 µM); against Staphylococcus aureus [11] it was 32 µg/mL (≈ 103 µM). Besides, the MIC against Enterococcus faecalis is 64 µg/mL (≈ 207 µM); against Escherichia coli [13], 128 µg/mL (≈ 414 µM); in the series on Escherichia coli [14], 16 µg/mL (≈ 51.7 µM); against Pseudomonas aeruginosa [20], 64 µg/mL (≈ 207 µM); against Klebsiella pneumoniae [22], 64 µg/mL (≈ 207 µM).
For `CCOC(=O)c1cn(CC(=O)N2CCCCC2)c2cc(F)c(F)cc2c1=O`, the MIC with Staphylococcus aureus [2] amounted to 128 µg/mL (≈ 338 µM); against Pseudomonas aeruginosa [4], 64 µg/mL (≈ 169 µM); in the series on Staphylococcus aureus [6], 256 µg/mL (≈ 677 µM); against Staphylococcus aureus [8], 64 µg/mL (≈ 169 µM); in the series with Acinetobacter baumannii it was 64 µg/mL (≈ 169 µM); in the series with Staphylococcus aureus [11], 256 µg/mL (≈ 677 µM). Further, the MIC against Enterococcus faecalis was 64 µg/mL (≈ 169 µM); in the series with Escherichia coli [13], 64 µg/mL (≈ 169 µM); against Escherichia coli [14], 16 µg/mL (≈ 42.3 µM); against Pseudomonas aeruginosa [20] it was 32 µg/mL (≈ 84.6 µM); against Klebsiella pneumoniae [22], 256 µg/mL (≈ 677 µM).
Take `CCOC(=O)c1cn(Cc2ccc(Cl)cc2)c2cc([C-](C#N)C(=O)OCC)c(F)cc2c1=O.[Na+]` (stereo unspecified): the MIC against Staphylococcus aureus [2] turned out to be 1 µg/mL; in the series with Pseudomonas aeruginosa [4] it was 2 µg/mL; with Staphylococcus aureus [6], 64 µg/mL; against Staphylococcus aureus [8] it was 2 µg/mL; in the series with Acinetobacter baumannii, 64 µg/mL; in the series with Staphylococcus aureus [11], 64 µg/mL. Also, the MIC against Enterococcus faecalis worked out at 1 µg/mL; against Escherichia coli [13] it was 1 µg/mL; against Escherichia coli [14], 0.5 µg/mL; in the series with Pseudomonas aeruginosa [20], 16 µg/mL; in the series with Klebsiella pneumoniae [22], 2 µg/mL.
As to `CCOC(=O)c1cn(Cc2ccccc2)c2cc([C-](C#N)C(=O)OCC)c(F)cc2c1=O.[Na+]` (stereo unspecified), the minimal inhibitory concentration (MIC) against Staphylococcus aureus [2] is 0.5 µg/mL; in the series with Pseudomonas aeruginosa [4], 4 µg/mL; in the series with Staphylococcus aureus [6] it was 256 µg/mL; with Staphylococcus aureus [8], 4 µg/mL; in the series with Acinetobacter baumannii it was 8 µg/mL; in the series on Staphylococcus aureus [11] it was 64 µg/mL. Moreover, the MIC against Enterococcus faecalis is 64 µg/mL; with Escherichia coli [13], 2 µg/mL; against Escherichia coli [14], 4 µg/mL; in the series with Pseudomonas aeruginosa [20] it was 32 µg/mL; in the series on Klebsiella pneumoniae [22], 4 µg/mL.
With `CCCCCn1cc(C(=O)OCC)c(=O)c2cc(F)c([C-](C#N)C(=O)OCC)cc21.[Na+]` (stereo unspecified), the MIC with Staphylococcus aureus [2] came out at 1 µg/mL; in the series with Pseudomonas aeruginosa [4] it was 4 µg/mL; against Staphylococcus aureus [6], 32 µg/mL; in the series with Staphylococcus aureus [8], 4 µg/mL; against Acinetobacter baumannii, 4 µg/mL; in the series with Staphylococcus aureus [11], 32 µg/mL. The MIC stood at 4 µg/mL with Enterococcus faecalis; 1 µg/mL against Escherichia coli [13]; 4 µg/mL in the series on Escherichia coli [14]; 4 µg/mL in the series with Pseudomonas aeruginosa [20]; 4 µg/mL with Klebsiella pneumoniae [22].
For `CCOC(=O)c1cn(CC(=O)N2CCCCC2)c2cc([C-](C#N)C(=O)OCC)c(F)cc2c1=O.[Na+]` (stereo unspecified), the MIC was determined as 64 µg/mL against Staphylococcus aureus [2]; 16 µg/mL against Pseudomonas aeruginosa [4]; 32 µg/mL in the series on Staphylococcus aureus [6]; 8 µg/mL against Staphylococcus aureus [8]; 16 µg/mL in the series on Acinetobacter baumannii; 256 µg/mL in the series with Staphylococcus aureus [11]. For the same compound, the MIC in the series with Enterococcus faecalis was determined as 64 µg/mL; against Escherichia coli [13], 64 µg/mL; with Escherichia coli [14], 32 µg/mL; in the series on Pseudomonas aeruginosa [20], 128 µg/mL; against Klebsiella pneumoniae [22], 256 µg/mL.
